Reference: US10251889B2, “Substituted pyrazolo[1,5-a]pyrimidine compounds as Trk kinase inhibitors” (Array BioPharma, Inc., priority 2009, dated 2019)
Where two headings read alike, the source gives them in different places.

How the values were obtained:
Assay type in all cases: biochemical
[1] = target: Jak2 (human Jak2 kinase domain, amino acids 808-1132) (Homo sapiens (Human), UniProt O60674); test: Jak2 inhibition assay (Omnia kinase assay); conditions: for inhibition at 1 µM: 1000 nM test compound
[2] = target: Jak1 (GST-tagged human Jak1 kinase domain, amino acids 866-1154) (Homo sapiens (Human), UniProt P23458); test: Jak1 inhibition assay (Omnia kinase assay); conditions: read-out: Jak1 (% inhibition at 1000 nM); Table 2; 1000 nM test compound
Experimental: (§1) The assays described in Examples C, D, E and F for the determination of JAK1, JAK2, JAK3 and Tyk2 kinase activity, respectively, utilized the Omnia® Kinase fluorescence peptide substrate-based technology (Invitrogen). […] The reactions were therefore read at excitation 360 nm and emission was measured at 485 nm every 50 seconds for 45 minutes using a PerkinElmer EnVision Multilabel Plate Reader.
(§2) The final buffer conditions for each of the JAK1, JAK2, JAK3 and Tyk2 assays were as follows: 25 mM HEPES, pH 7.4, 10 mM MgCl2, 0.01% Triton X-100 and 1 mM DTT.
(§3) Compounds were prepared at 50× the final concentration in DMSO by conducting 3-fold serial dilutions from a 500-μM or 1000-μM intermediate dilution to give a 10-point dosing curve having a high dose of 10 or 20 μM. Two-μL aliquots of these were transferred to a fresh plate for a ten-fold intermediate dilution with assay buffer. Five-μL aliquots of the diluted compounds were then transferred to 20-μL of assay mixtures described in Examples C, D, E and F for a final concentration of DMSO of 2%. A standard or reference compound was typically included on each assay plate to validate that plate. For each plate, percent of control (POC) values were calculated for each well according to the following equation:
(§4) where Xmax=Average Uninhibited Controls • Xmin=Average Background IC50's were estimated from the POC's using a standard 4-parameter logistic model:
(§5) where A=Minimum Y (Bottom Asymptote) • B=Maximum Y (Top Asymptote) • C=EC50 • D=Slope Factor • X=Compound Concentration (nM) • Y=POC
(§6) The IC50 is defined as the concentration of inhibitor at which the POC equals 50 for the fitted curve.
Compounds of Formula I were screened for their ability to inhibit Jak1 using the general enzyme inhibition assay method, in which the assay mixture contained 500 μM ATP, 8 μM Omnia® Y12 peptide (Catalog # IVGN KPZ3121C; Invitrogen Corporation, Carlsbad, Calif.) and 5 nM Jak1 in a total volume of 20 μL. […] (catalog # IVGN PV4774).

[3] = target: Jak3 (GST-tagged human Jak3 kinase domain, amino acids 781-1124) (Homo sapiens (Human), UniProt P52333); test: Jak3 inhibition assay (Omnia kinase assay); conditions: read-out: Jak3 (% inhibition at 1000 nM); Table 2; 1000 nM test compound
Experimental: as §1, §2, §3, §4, §5, §6
Compounds of Formula I were screened for their ability to inhibit Jak3 using the general enzyme inhibition assay method, in which the assay mixture contained 500 μM ATP, 10 μM Omnia® Y7 peptide (Catalog # IVGN KNZ3071C, Invitrogen Corporation, Carlsbad, Calif.) and 1.5 nM Jak3 in a total volume of 20 μL. GST-tagged human Jak3 kinase domain comprising amino acids 781-1124 was purchased from Invitrogen Corporation, Carlsbad, Calif. (catalog # IVGN PV3855).

[4] = target: Tyk2 (human Tyk2 kinase domain, amino acids 886 to 1187) (Homo sapiens (Human), UniProt P29597); test: Tyk2 inhibition assay (Omnia kinase assay); conditions: read-out: Tyk2 (% inhibition at 1000 nM); Table 2; 1000 nM test compound
Experimental: as §1, §2, §3, §4, §5, §6
Compounds of Formula I were screened for their ability to inhibit Tyk2 using the general enzyme inhibition assay method, in which the assay mixture contained 500 μM ATP, 8 μM Omnia® Y12 peptide (Catalog # IVGN KPZ3121C; Invitrogen Corporation, Carlsbad, Calif.) and 1 nM Tyk2 in a total volume of 20 μL. Human Tyk2 kinase domain, comprising amino acids 886 to 1187 with 10 additional histidine residues (histidine tag) on the carboxy terminus, was expressed and purified from baculovirus in-house at Array BioPharma Inc. (Boulder, Colo.). The histidine tag was cleaved after purification using standard conditions.

[5] = target: TrkA (histidine-tagged recombinant human TrkA, cytoplasmic domain) (Homo sapiens (Human), UniProt P04629); test: TrkA ELISA assay; conditions: Table 1, 500 μM ATP, read-out: TrkA Enzyme IC50
Experimental: An enzyme-linked immunosorbant assay (ELISA) was used to assess TrkA kinase activity in the presence of inhibitors. Immulon 4HBX 384-well microtiter plates (Thermo part #8755) were coated with a 0.025 mg/mL solution of poly (Glu, Ala, Tyr; 6:3:1; Sigma P3899). […] The assay buffer consisted of 25 mM MOPS pH 7.5, 0.005% (v/v) Triton X-100 and 5 mM MgCl2. The reaction mixture was removed from the plate by washing with PBS containing 0.1% (v/v) Tween 20. The phosphorylated reaction product was detected using 0.2 μg/mL of a phosphotyrosine specific monoclonal antibody (clone PY20) conjugated to horseradish peroxidase in conjunction with the TMB Peroxidase Substrate System (KPL). After the addition of 1M phosphoric acid, the chromogenic substrate color intensity was quantitated via absorbance at 450 nm.

[6] = read-out: Jak2 (% inhibition at 1000 nM), Table 2
[7] = read-out: Jak2 Enzyme (% inhibition at 1000 nM), Table 1

Jak3 (GST-tagged human Jak3 kinase domain, amino acids 781-1124), sequence (P52333 781-1124): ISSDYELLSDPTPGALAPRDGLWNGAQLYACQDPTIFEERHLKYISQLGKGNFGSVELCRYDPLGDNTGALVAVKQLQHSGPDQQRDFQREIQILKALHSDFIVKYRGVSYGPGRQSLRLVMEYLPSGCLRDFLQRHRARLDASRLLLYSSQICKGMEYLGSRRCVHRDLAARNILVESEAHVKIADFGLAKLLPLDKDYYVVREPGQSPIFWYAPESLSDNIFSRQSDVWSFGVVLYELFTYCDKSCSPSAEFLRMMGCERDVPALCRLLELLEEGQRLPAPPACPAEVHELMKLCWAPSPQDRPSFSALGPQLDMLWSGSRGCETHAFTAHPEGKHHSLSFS
Jak1 (GST-tagged human Jak1 kinase domain, amino acids 866-1154), sequence (P23458 866-1154): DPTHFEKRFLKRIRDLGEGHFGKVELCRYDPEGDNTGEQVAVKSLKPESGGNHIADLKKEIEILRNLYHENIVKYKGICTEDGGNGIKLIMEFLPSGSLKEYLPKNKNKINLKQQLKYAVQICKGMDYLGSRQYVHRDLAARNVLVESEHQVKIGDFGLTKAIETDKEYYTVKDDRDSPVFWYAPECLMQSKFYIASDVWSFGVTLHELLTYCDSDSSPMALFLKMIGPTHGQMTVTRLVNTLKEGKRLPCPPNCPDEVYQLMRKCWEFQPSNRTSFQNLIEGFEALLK
Tyk2 (human Tyk2 kinase domain, amino acids 886 to 1187), sequence (P29597 886-1187): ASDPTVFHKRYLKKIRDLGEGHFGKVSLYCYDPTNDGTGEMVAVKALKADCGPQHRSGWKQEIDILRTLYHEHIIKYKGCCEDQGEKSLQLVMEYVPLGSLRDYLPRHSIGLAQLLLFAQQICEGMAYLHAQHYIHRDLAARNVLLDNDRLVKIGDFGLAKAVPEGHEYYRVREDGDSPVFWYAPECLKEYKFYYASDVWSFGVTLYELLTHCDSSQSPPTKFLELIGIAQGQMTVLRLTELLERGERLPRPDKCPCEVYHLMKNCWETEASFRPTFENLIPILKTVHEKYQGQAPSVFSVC
Jak2 (human Jak2 kinase domain, amino acids 808-1132), sequence (O60674 808-1132): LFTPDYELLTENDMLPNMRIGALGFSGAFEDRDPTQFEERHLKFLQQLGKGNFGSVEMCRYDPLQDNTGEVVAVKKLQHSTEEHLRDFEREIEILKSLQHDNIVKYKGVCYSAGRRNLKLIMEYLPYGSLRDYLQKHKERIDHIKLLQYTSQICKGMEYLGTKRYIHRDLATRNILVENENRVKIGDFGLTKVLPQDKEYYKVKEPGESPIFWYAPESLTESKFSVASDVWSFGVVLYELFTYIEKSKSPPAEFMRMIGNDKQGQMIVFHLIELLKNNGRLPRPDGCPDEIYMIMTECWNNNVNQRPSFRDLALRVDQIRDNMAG
TrkA (histidine-tagged recombinant human TrkA, cytoplasmic domain), sequence (P04629 440-796): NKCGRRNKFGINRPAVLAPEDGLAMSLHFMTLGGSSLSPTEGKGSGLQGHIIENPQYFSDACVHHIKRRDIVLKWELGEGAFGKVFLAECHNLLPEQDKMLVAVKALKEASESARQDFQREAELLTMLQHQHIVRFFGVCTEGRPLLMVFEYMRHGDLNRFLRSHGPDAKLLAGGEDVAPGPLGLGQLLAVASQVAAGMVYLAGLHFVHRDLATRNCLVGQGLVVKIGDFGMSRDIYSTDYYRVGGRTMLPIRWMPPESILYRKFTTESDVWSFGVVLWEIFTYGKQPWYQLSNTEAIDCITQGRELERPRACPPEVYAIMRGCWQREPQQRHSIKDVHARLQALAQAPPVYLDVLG

Row | SMILES | inhibition at 1 µM [1, 6] [%] | inhibition at 1 µM [1, 7] [%] | inhibition at 1 µM [2] [%] | inhibition at 1 µM [3] [%] | inhibition at 1 µM [4] [%] | IC50 [5] [nM] | IC50 ([1]; Table 1, 500 μM ATP, >1000 nM when >50% inhibition not observed at 1000 nM, read-out: Jak2 Enzyme IC50) [nM]
1 | NC(=O)c1cnn2ccc(N3CCC[C@@H]3c3cc(F)ccc3F)nc12 [Example 30, (R)-5-(2-(2,5-difluorophenyl)pyrrolidin-1-yl)pyrazolo[1,5-a]pyrimidine-3-carboxamide] | 30.4 | 25.7 | 13.4 | 2.9 | 11.3 | – | –
2 | O=C(NC1CC1)c1cnn2ccc(N3CCC[C@@H]3c3cncc(F)c3)nc12 [Example 52, (R)—N-cyclopropyl-5-(2-(5-fluoropyridin-3-yl)pyrrolidin-1-yl)pyrazolo[1,5-a]pyrimidine-3-carboxamide] | 13 | 9.4 | 8.6 | 0.8 | 13.8 | – | –
3 | CC1(NC(=O)c2cnn3ccc(N4CCC[C@@H]4c4cncc(F)c4)nc23)CC1 [Example 91, (R)-5-(2-(5-fluoropyridin-3-yl)pyrrolidin-1-yl)-N-(1-methylcyclopropyl)pyrazolo[1,5-a]pyrimidine-3-carboxamide] | 42.1 | 34.9 | 20.3 | 8.3 | 14.8 | – | –
4 | CC(C)NC(=O)c1cnn2ccc(N3CCC[C@@H]3c3cncc(F)c3)nc12 [Example 93, (R)-5-(2-(5-fluoropyridin-3-yl)pyrrolidin-1-yl)-N-isopropylpyrazolo[1,5-a]pyrimidine-3-carboxamide] | 42.2 | 34.7 | 19.7 | 10.6 | 17.2 | – | –
5 | O=C(NC1(C(F)(F)F)CC1)c1cnn2ccc(N3CCC[C@@H]3c3cncc(F)c3)nc12 [Example 98, (R)-5-(2-(5-fluoropyridin-3-yl)pyrrolidin-1-yl)-N-(1-(trifluoromethyl)cyclopropyl)pyrazolo[1,5-a]pyrimidine-3-carboxamide] | 27.8 | 23.7 | 8.8 | 5.5 | 9.2 | – | –
6 | O=C(NCC1CC1)c1cnn2ccc(N3CCC[C@@H]3c3cncc(F)c3)nc12 [Example 106, (R)-N-(cyclopropylmethyl)-5-(2-(5-fluoropyridin-3-yl)pyrrolidin-1-yl)pyrazolo[1,5-a]pyrimidine-3-carboxamide] | 21 | 8 | 8.2 | 9.7 | 14.8 | – | –
7 | CNC(=O)c1cnn2ccc(N3CCC[C@@H]3c3cncc(F)c3)nc12 [Example 114, (R)-5-(2-(5-fluoropyridin-3-yl)pyrrolidin-1-yl)-N-methylpyrazolo[1,5-a]pyrimidine-3-carboxamide] | 15.6 | 5 | 10.9 | 8.5 | 11.4 | – | –
8 | C[C@@H](NC(=O)c1cnn2ccc(N3CCC[C@@H]3c3cncc(F)c3)nc12)C1CC1 [Example 123, N-((R)-1-cyclopropylethyl)-5-((R)-2-(5-fluoropyridin-3-yl)pyrrolidin-1-yl)pyrazolo[1,5-a]pyrimidine-3-carboxamide] | 49.1 | 38.8 | 22 | 8.9 | 14.4 | – | –
9 | C[C@H](NC(=O)c1cnn2ccc(N3CCC[C@@H]3c3cncc(F)c3)nc12)C1CC1 [Example 124, N-((S)-1-cyclopropylethyl)-5-((R)-2-(5-fluoropyridin-3-yl)pyrrolidin-1-yl)pyrazolo[1,5-a]pyrimidine-3-carboxamide] | 72.3 | 53.3 | 36.4 | 7.2 | 16.2 | – | –
10 | C[C@@H](NC(=O)c1cnn2ccc(N3CCC[C@@H]3c3cncc(F)c3)nc12)C(F)(F)F [Example 129, 5-((R)-2-(5-fluoropyridin-3-yl)pyrrolidin-1-yl)-N-((R)-1,1,1-trifluoropropan-2-yl)pyrazolo[1,5-a]pyrimidine-3-carboxamide] | – | 25.2 | – | – | – | 8 | > 1000
11 | O=C(N[C@@H]1CCC[C@H]1O)c1cnn2ccc(N3CCC[C@@H]3c3cncc(F)c3)nc12 [Example 133, 5-((R)-2-(5-fluoropyridin-3-yl)pyrrolidin-1-yl)-N-((1R,2R)-2-hydroxycyclopentyl)pyrazolo[1,5-a]pyrimidine-3-carboxamide] | – | 14.4 | – | – | – | 16 | –
12 | COc1ncc(F)cc1[C@H]1CCCN1c1ccn2ncc(C(=O)N[C@H]3CC[C@H](O)CC3)c2n1 [Example 140, 5-((R)-2-(5-fluoro-2-methoxypyridin-3-yl)pyrrolidin-1-yl)-N-((trans)-4-hydroxycyclohexyl)pyrazolo[1,5-a]pyrimidine-3-carboxamide] | 98.5 | 90.1 | 64.2 | 20.2 | 34.8 | – | –
13 | Cc1ncc(F)cc1[C@H]1CCCN1c1ccn2ncc(C(=O)NC3(C)CC3)c2n1 [Example 190, (R)-5-(2-(5-fluoro-2-methylpyridin-3-yl)pyrrolidin-1-yl)-N-(1-methylcyclopropyl)pyrazolo[1,5-a]pyrimidine-3-carboxamide] | 33.9 | 28.4 | 14.3 | 7.2 | 13.4 | – | –
14 | Cc1ncc(F)cc1[C@H]1CCCN1c1ccn2ncc(C(=O)N[C@H]3CC[C@H](O)CC3)c2n1 [Example 194, 5-((R)-2-(5-fluoro-2-methylpyridin-3-yl)pyrrolidin-1-yl)-N-((trans)-4-hydroxycyclohexyl)pyrazolo[1,5-a]pyrimidine-3-carboxamide] | 37.6 | 31.2 | 7.4 | 2.6 | 8.1 | – | –
15 | Cn1cc(F)cc([C@H]2CCCN2c2ccn3ncc(C(=O)N[C@H]4CC[C@H](O)CC4)c3n2)c1=O [Example 238, 5-((R)-2-(5-fluoro-1-methyl-2-oxo-1,2-dihydropyridin-3-yl)pyrrolidin-1-yl)-N-((trans)-4-hydroxycyclohexyl)pyrazolo[1,5-a]pyrimidine-3-carboxamide] | – | 58.9 | – | – | – | – | –
16 | Cn1cc(F)cc([C@H]2CCCN2c2ccn3ncc(C(=O)Nc4ccc(F)cn4)c3n2)c1=O [Example 239, (R)-5-(2-(5-fluoro-1-methyl-2-oxo-1,2-dihydropyridin-3-yl)pyrrolidin-1-yl)-N-(5-fluoropyridin-2-yl)pyrazolo[1,5-a]pyrimidine-3-carboxamide] | – | 15.5 | – | – | – | – | –
